According to patent publication US7998754B2, “In vitro method for the simultaneous detection and identification of antibiotics of different classes and corresponding diagnostic kit” (Unisensor S.A., priority 2005, dated 2011):
Like-named read-outs stand apart in the source and are kept apart here.

What was measured:
β-lactame receptor (RSA) [1] = biological target: T1, β-lactame receptor (RSA) (Staphylococcus aureus, UniProt P18357); assay type: binding; conditions: milk; for Intensity ratio of parameter/control zone: at the detection limit concentration; for Detection limit: Concentration: β-lactames, positive when ratio test/control <= 1
T1 construct: made in house
T1 sequence (P18357 331-585 limits assumed): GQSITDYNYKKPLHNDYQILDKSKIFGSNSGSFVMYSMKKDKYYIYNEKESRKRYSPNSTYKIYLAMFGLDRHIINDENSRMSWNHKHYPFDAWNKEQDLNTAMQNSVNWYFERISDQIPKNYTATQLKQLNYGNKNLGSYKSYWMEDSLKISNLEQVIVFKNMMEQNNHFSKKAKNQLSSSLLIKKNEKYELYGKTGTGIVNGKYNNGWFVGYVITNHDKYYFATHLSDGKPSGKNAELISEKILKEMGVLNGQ
Excerpt: (§1) For the detection of β-lactames, the reactive mixture comprises the specific receptor for recognising β-lactames, its specific antibody and a preparation of protein A conjugated with colloidal gold. For the detection of tetracyclines, the reactive mixture comprises the receptor of the tetracyclines, its specific antibody, a specific fragment of DNA conjugated with biotin and a preparation of protein A conjugated with colloidal gold.
(§2) The β-lactame receptor is obtained by the method described by Golemi-Kotra et al.^(6) The unpurified receptor is filtered on a Millex HV membrane (Millipore, Inc., USA) before it is stored at 4° C. in the presence of glycerol at 50% v/v.
(§3) This mixture is either prepared as required or lyophilisated for 20 hours. The Recovery System
(§4) The recovery system comprises a nitrocellulose membrane on which are fixed, at distinct points, the elements capable of forming a complex with the recognition molecules of the reactive mixture. These elements are: • for the “beta” signal (for β-lactame), an antibiotic, preferably of penicillin or cephalosporine type, fixed to a molecule with no particular reactivity to protein A, biotin or avidine. […] An egg-white avidine is preferably used.
(§5) In the case of a detection of two parameters, the preparations of β-lactoglobulin and avidine will be deposited on each side of the control line. For example, the β-lactoglobulin conjugate already prepared will be deposited below the control line and the neutralized avidine solution will be deposited above the control line (FIG. 1).
(§6) 200 μL of cold milk are incubated at 50° C. in the presence of 50 μl of the reagents prepared and/or lyophilisated as above. After 3 minutes of incubation at 50° C., the above-described recovery element is immersed in the solution. The final interpretation is made after 3 minutes of incubation by means of an optical dipstick reader available at Matest (Germany);
(§7) As a general rule, when the ratio of the intensities of the concerned test signal relative to the control signal is less than or equal to 1, the sample is considered positive for the parameter (compound) concerned.

β-lactame receptor (RSA) [2] = biological target: T1, β-lactame receptor (RSA); assay type: binding; conditions: milk; for Ratio test/control: at the detection limit concentration; for Concentration detection limit: β-lactames, three-parameter test
Procedure: This mixture is prepared either as required or lyophilisated for 20 hours. The Recovery System
The other capture zones are identical but differently positioned, as in FIG. 2.
A single control zone serves as a reference for the three markers.
as §6, with “(Germany).” for “(Germany);”
As a general rule, if the ratio of the intensities of the concerned test signal relative to the control signal is less than or equal to 1, the sample is considered as positive for the parameter (compound) concerned.

[3] = cited from earlier work; for MRL/EU: maximum residue level, European Union
[4] = tested on: tetracycline receptor (TetR); assay: Example 1 dipstick test in milk, "tetra" capture zone (format 1); assay type: binding, E. Coli
Excerpt: In addition, the recovery system is a specific and biotinylated fragment of DNA that can be fixed on a molecule of avidine attached to a nitrocellulose membrane. […] In this case, the fragment of DNA forms a complex with the receptor and a signal generated by the gold particles attached to the receptor appears.
as §1, §2
The DNA fragment is obtained at Eurogentec SA, Belgium according to the sequence and preparation described in patent application WO-A-03/048770. In this precise case, the DNA fragment is not fixed to a capture point on a nitrocellulose membrane but it is directly incorporated into the reactive mixture. This fragment will be recovered in testo by means of its biotinylated end on avidine fixed to a capture point (see below).
as §3, §4, §5, §6, §7

| Molecule | Intensity ratio of parameter/control zone (β-lactame receptor (RSA) [1]) | Detection limit: Concentration (β-lactame receptor (RSA) [1]) | Ratio test/control (β-lactame receptor (RSA) [2]) | Concentration detection limit (β-lactame receptor (RSA) [2]) | Safe level/US [3] | MRL/EU [3] | further results |
| --- | --- | --- | --- | --- | --- | --- | --- |
| CC1(C)S[C@@H]2[C@H](NC(=O)[C@H](N)c3ccc(O)cc3)C(=O)N2[C@H]1C(=O)O [Amoxicillin] | 0.4 | 4 ppb | 0.4 | 4 ppb | 10 ppb | 4 ppb |  |
| CC1(C)S[C@@H]2[C@H](NC(=O)[C@H](N)c3ccccc3)C(=O)N2[C@H]1C(=O)O [Ampicillin] |  | 4 ppb |  | 4 ppb |  |  | Intensity: zone B (β-lactame receptor (RSA) [1]; Ampi 1 ppb): 380; Intensity: zone B (β-lactame receptor (RSA) [1]; Ampi 2 ppb): 250; Intensity: zone B (β-lactame receptor (RSA) [1]; Ampi 3 ppb): 155; Intensity: zone B (β-lactame receptor (RSA) [1]; Ampi 4 ppb + Tetra 75 ppb together): 122; Intensity: zone B (β-lactame receptor (RSA) [1]; Ampi 4 ppb): 105; Intensity: zone B (β-lactame receptor (RSA) [1]; Ampi 5 ppb): 55; Intensity: zone B (β-lactame receptor (RSA) [1]; Ampi 10 ppb): 25; Intensity: zone T ([4]; Ampi 1 ppb): 380; Intensity: zone T ([4]; Ampi 2 ppb): 405; Intensity: zone T ([4]; Ampi 3 ppb): 408; Intensity: zone T ([4]; Ampi 4 ppb): 386; Intensity: zone T ([4]; Ampi 5 ppb): 397; Intensity: zone T ([4]; Ampi 10 ppb): 414 |
| CC1(C)S[C@@H]2[C@H](NC(=O)Cc3ccccc3)C(=O)N2[C@H]1C(=O)O [Benzylpenicillin] |  | 2 ppb |  | 2 ppb |  |  |  |
| CO/N=C(\C(=O)N[C@@H]1C(=O)N2C(C(=O)O)=C(CSC(=O)c3ccco3)CS[C@H]12)c1csc(N)n1 [Ceftiofur] | 0.5 | 10 ppb | 0.5 | 10 ppb | 50 ppb | 100 ppb |  |
| CC(=O)OCC1=C(C(=O)O)N2C(=O)[C@@H](NC(=O)CSc3ccncc3)[C@H]2SC1 [Cephapyrin] | 0.3 | 8 ppb | 0.3 | 8 ppb | 20 ppb | 60 ppb |  |
| CN(C)[C@@H]1C(O)=C(C(N)=O)C(=O)[C@@]2(O)C(O)=C3C(=O)c4c(O)ccc(Cl)c4[C@@](C)(O)[C@H]3C[C@@H]12 [Chlortetracycline] |  |  |  |  | 300 ppb | 100 ppb |  |
| C[C@H]1c2cccc(O)c2C(=O)C2=C(O)[C@]3(O)C(=O)C(C(N)=O)=C(O)[C@@H](N(C)C)[C@@H]3[C@@H](O)[C@@H]21 [Doxycycline] |  |  |  |  | 300 ppb | 100 ppb |  |
| CN(C)[C@@H]1C(O)=C(C(N)=O)C(=O)[C@@]2(O)C(O)=C3C(=O)c4c(O)cccc4[C@@](C)(O)[C@H]3[C@H](O)[C@@H]12 [Oxytetracycline] |  |  |  |  | 300 ppb | 100 ppb |  |
| CN(C)[C@@H]1C(O)=C(C(N)=O)C(=O)[C@@]2(O)C(O)=C3C(=O)c4c(O)cccc4[C@@](C)(O)[C@H]3C[C@@H]12 [Tetracycline] |  |  |  |  | 300 ppb | 100 ppb |  |
| Cloxacycline | 0.5 | 10 ppb | 0.5 | 10 ppb | 10 ppb | 30 ppb |  |
